In patent US20230026696A1, “TRPV4 RECEPTOR LIGANDS” (UNIVERSITY OF UTAH RESEARCH FOUNDATION, priority 2019, published 2023):
Counter-ions that a name gives are not always drawn.

The molecules below were run against T1, human TRPV4 (Homo sapiens, UniProt Q9HBA0) (assay: Fluorometric cell-based Ca2+ flux assay, HEK-293 cells stably overexpressing human TRPV4). Conditions: HEK-293 stably overexpressing human TRPV4; agonist GSK1016790A 30 nM.
T1 construct: expressed in transfected cells
Protocol: Fluorometric cell-based Ca^2+ flux assays were performed to assess TRPV4 antagonist activity and determine potency (IC50 values) in human embryonic kidney-293 cells (HEK-293) that stably overexpress human TRPV4. The assays were performed according to methods described in: Deering-Rice, C. E., Johansen, M. E., Roberts, J. K., Thomas, K. C., Romero, E. G., Lee, J., Yost, G. S., Veranth, J. M., and Reilly, C. A. (2012), Mol. Pharmacol. 81(3), 411-419; Shapiro, D., Deering-Rice, C. E., Romero, E. G., Hughen, R. W., Light, A. R., Veranth, J. M., and Reilly, C. A. (2013), Chem Res. Toxicol., 26, 750-758; and Deering-Rice, C. E., Mitchell, V. K., Romero, E. G., Abdel Aziz, M. H., and Reilly, C. A. (2014), Pharmacol. Res. & Perspectives. 2(5), 1-10.
The HEK-293 cells stably overexpressing human TRPV4 were grown to confluence in 2% (w/v) gelatin-coated 96-well plates in DMEM:F12 media supplemented with 5% fetal bovine serum, 1× penicillin/streptomycin (Invitrogen) and Geneticin (300 μg/mL).
The HEK-293 cells were prepared for assay by replacing the growth media with a 1:1 solution of LHC-9 and Fluo 4-Direct (Invitrogen) reagent containing Fluo 4-AM, pluronic F-127, probenecid, and a proprietary quencher dye. The cells were then incubated at 37° C. for 1 h in a cell culture incubator. The cells were subsequently washed by replacing the loading solution with LHC-9 containing 1 mM water-soluble probenecid (Invitrogen), 750 μM Trypan Red (ATT Bioquest), and a test compound (at various concentrations). The cells were incubated for an additional 30 minutes at 37° C. to allow for Fluo 4-AM cleavage and activation, as well as equilibration to both the test compounds and Fluo 4.
An agonist treatment solution (90 nM GSK1016790A, a potent activator of TRPV4) was prepared in LHC9 at 3× concentration and 25 μL was added to 50 μL of media on the cells in 96 well plates, providing a final concentration of 30 nM. Changes in cellular fluorescence were monitored with a BMG Labtech NOVOStar fluorescence plate reader for 1 minute at 37° C. Data were quantified as the maximum rate of change in fluorescence intensity (max ΔF/s), corrected for media only treatment (negative control), and represented as the percentage of response relative to the no antagonist control. A minimum of three replicates were used for each treatment condition, with a minimum of 8 concentrations to derive the IC50 values reported for each antagonist. The IC50 values for each antagonist, which are shown in Table 4 below, were calculated according to methods described in the assays were performed according to methods described in: Deering-Rice, C. E., Johansen, M. E., Roberts, J. K., Thomas, K. C., Romero, E. G., Lee, J., Yost, G. S., Veranth, J. M., and Reilly, C. A. (2012), Mol. Pharmacol. 81(3), 411-419; Shapiro, D., Deering-Rice, C. E., Romero, E. G., Hughen, R. W., Light, A. R., Veranth, J. M., and Reilly, C. A. (2013), Chem Res. Toxicol., 26, 750-758; and Deering-Rice, C. E., Mitchell, V. K., Romero, E. G., Abdel Aziz, M. H., and Reilly, C. A. (2014), Pharmacol. Res. & Perspectives. 2(5), 1-10.

T1 sequence (Q9HBA0 whole entry): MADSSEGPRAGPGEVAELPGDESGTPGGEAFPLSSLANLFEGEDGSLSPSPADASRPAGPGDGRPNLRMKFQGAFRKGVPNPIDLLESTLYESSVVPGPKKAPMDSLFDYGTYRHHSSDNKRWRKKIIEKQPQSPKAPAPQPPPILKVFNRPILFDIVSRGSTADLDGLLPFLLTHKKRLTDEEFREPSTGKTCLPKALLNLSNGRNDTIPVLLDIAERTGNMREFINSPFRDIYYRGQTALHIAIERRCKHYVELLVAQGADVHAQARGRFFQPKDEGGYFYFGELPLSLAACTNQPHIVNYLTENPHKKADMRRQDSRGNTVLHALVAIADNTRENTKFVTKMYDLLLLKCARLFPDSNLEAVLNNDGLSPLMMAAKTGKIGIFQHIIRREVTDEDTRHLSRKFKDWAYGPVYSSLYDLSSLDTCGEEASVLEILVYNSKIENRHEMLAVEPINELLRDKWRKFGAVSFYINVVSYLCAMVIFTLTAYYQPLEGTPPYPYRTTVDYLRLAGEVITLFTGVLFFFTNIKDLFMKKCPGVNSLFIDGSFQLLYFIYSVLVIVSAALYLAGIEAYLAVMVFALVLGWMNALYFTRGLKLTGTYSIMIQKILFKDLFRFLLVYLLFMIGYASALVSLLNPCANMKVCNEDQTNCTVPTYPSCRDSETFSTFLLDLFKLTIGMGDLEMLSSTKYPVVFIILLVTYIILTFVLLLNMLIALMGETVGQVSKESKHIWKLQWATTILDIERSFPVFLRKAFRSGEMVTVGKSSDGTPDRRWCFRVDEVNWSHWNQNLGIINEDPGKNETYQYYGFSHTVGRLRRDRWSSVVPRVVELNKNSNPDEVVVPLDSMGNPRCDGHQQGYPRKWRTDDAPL

Row | Compound | IC50 [nM]
1 | N#Cc1ccc(OCC2(CN[C@H]3C[C@H](O)C3)CN(S(=O)(=O)c3ccc(Cl)cc3Cl)C2)cc1F [Compound 42, 4-((1-((2,4-Dichlorophenyl)sulfonyl)-3-((((trans)-3-hydroxycyclobutyl)amino)methyl)azetidin-3-yl)methoxy)-2-fluorobenzonitrile hydrochloride] | 1.3
2 | N#Cc1ccc(OCC2(CN)CN(S(=O)(=O)c3ccc(Cl)cc3Cl)C2)cc1F [Compound 44, 4-((3-(Aminomethyl)-1-((2,4-dichlorophenyl)sulfonyl)azetidin-3-yl)methoxy)-2-fluorobenzonitrile] | 8.7
3 | CC(=O)NCC1(COc2ccc(C#N)c(F)c2)CN(S(=O)(=O)c2ccc(Cl)cc2Cl)C1 [Compound 45, N-((3-((4-Cyano-3-fluorophenoxy)methyl)-1-((2,4-dichlorophenyl)sulfonyl)azetidin-3-yl)methyl)acetamide] | 3000
4 | N#Cc1ccc(OCC2(CNC(=O)CN)CN(S(=O)(=O)c3ccc(Cl)cc3Cl)C2)cc1F [Compound 46, 2-Amino-N-((3-((4-cyano-3-fluorophenoxy)methyl)-1-((2,4-dichlorophenyl)sulfonyl)azetidin-3-yl)methyl)acetamide] | 52
5 | N#Cc1ccc(OCC2(CNC(=O)CO)CN(S(=O)(=O)c3ccc(Cl)cc3Cl)C2)cc1F [Compound 47, N-((3-((4-Cyano-3-fluorophenoxy)methyl)-1-((2,4-dichlorophenyl)sulfonyl)azetidin-3-yl)methyl)-2-hydroxyacetamide] | 348
6 | CNCC(=O)NCC1(COc2ccc(C#N)c(F)c2)CN(S(=O)(=O)c2ccc(Cl)cc2Cl)C1 [Compound 48, N-((3-((4-Cyano-3-fluorophenoxy)methyl)-1-((2,4-dichlorophenyl)sulfonyl)azetidin-3-yl)methyl)-2-(methylamino)acetamide] | 252
7 | N#Cc1ccc(OCC2(CNS(=O)(=O)CCN)CN(S(=O)(=O)c3ccc(Cl)cc3Cl)C2)cc1F [Compound 49, 2-Amino-N-((3-((4-cyano-3-fluorophenoxy)methyl)-1-((2,4-dichlorophenyl)sulfonyl)azetidin-3-yl)methyl)ethane-1-sulfonamide] | 110
8 | N#Cc1ccc(OCC2(CN3CCOCC3)CN(S(=O)(=O)c3ccc(Cl)cc3Cl)C2)cc1F [Compound 50, 4-((1-((2,4-Dichlorophenyl)sulfonyl)-3-(morpholinomethyl)azetidin-3-yl)methoxy)-2-fluorobenzonitrile hydrochloride] | 794
9 | CC(C)(C)OC(=O)NC1(COc2ccc(C#N)c(F)c2)CN(S(=O)(=O)c2ccc(Cl)cc2Cl)C1 [Compound 51, tert-Butyl (3-((4-cyano-3-fluorophenoxy)methyl)-1-((2,4-dichlorophenyl)sulfonyl)azetidin-3-yl)carbamate] | 3350
10 | CC(=O)NC1(COc2ccc(C#N)c(F)c2)CN(S(=O)(=O)c2ccc(Cl)cc2Cl)C1 [Compound 53, N-(3-((4-Cyano-3-fluorophenoxy)methyl)-1-((2,4-dichlorophenyl)sulfonyl)azetidin-3-yl)acetamide] | 88
11 | CN(C)C1(COc2ccc(C#N)c(F)c2)CN(S(=O)(=O)c2ccc(Cl)cc2Cl)C1 [Compound 54, 4-((1-((2,4-Dichlorophenyl)sulfonyl)-3-(dimethylamino)azetidin-3-yl)methoxy)-2-fluorobenzonitrile] | 1240
12 | N#Cc1ccc(OCC2(NC(=O)CN)CN(S(=O)(=O)c3ccc(Cl)cc3Cl)C2)cc1F [Compound 55, 2-Amino-N-(3-((4-cyano-3-fluorophenoxy)methyl)-1-((2,4-dichlorophenyl)sulfonyl)azetidin-3-yl)acetamide] | 23
13 | N#Cc1ccc(OCC2(NC(=O)CO)CN(S(=O)(=O)c3ccc(Cl)cc3Cl)C2)cc1F [Compound 56, N-(3-((4-Cyano-3-fluorophenoxy)methyl)-1-((2,4-dichlorophenyl)sulfonyl)azetidin-3-yl)-2-hydroxyacetamide] | 100
14 | N#Cc1ccc(OCC2(NS(=O)(=O)CCN)CN(S(=O)(=O)c3ccc(Cl)cc3Cl)C2)cc1F [Compound 57, 2-Amino-N-(3-((4-cyano-3-fluorophenoxy)methyl)-1-((2,4-dichlorophenyl)sulfonyl)azetidin-3-yl)ethane-1-sulfonamide hydrochloride] | 53
15 | N#Cc1ccc(OCC2(CO)CN(S(=O)(=O)c3ccccc3Cl)C2)cc1F [Compound 58, 4-((1-((2-Chlorophenyl)sulfonyl)-3-(hydroxymethyl)azetidin-3-yl)methoxy)-2-fluorobenzonitrile] | 413
16 | N#Cc1ccc(OCC2(CO)CN(S(=O)(=O)c3ccc(C(F)(F)F)cc3Cl)C2)cc1F [Compound 59, 4-((1-((2-Chloro-4-(trifluoromethyl)phenyl)sulfonyl)-3-(hydroxymethyl)azetidin-3-yl)methoxy)-2-fluorobenzonitrile] | 481
17 | N#Cc1ccc(S(=O)(=O)N2CC(CO)(COc3ccc(C#N)c(F)c3)C2)c(Cl)c1 [Compound 60, 4-((1-((2-Chloro-4-cyanophenyl)sulfonyl)-3-(hydroxymethyl)azetidin-3-yl)methoxy)-2-fluorobenzonitrile] | 54
18 | Cc1ccc(S(=O)(=O)N2CC(CO)(COc3ccc(C#N)c(F)c3)C2)c(C)c1 [Compound 62, 4-((1-((2,4-Dimethylphenyl)sulfonyl)-3-(hydroxymethyl)azetidin-3-yl)methoxy)-2-fluorobenzonitrile] | 472
19 | COC(=O)c1ccc(S(=O)(=O)N2CC(CO)(COc3ccc(C#N)c(F)c3)C2)cc1 [Compound 63, Methyl 4-((3-((4-cyano-3-fluorophenoxy)methyl)-3-(hydroxymethyl)azetidin-1-yl)sulfonyl)benzoate] | 5000
20 | N#Cc1ccc(OCC2(CO)CN(S(=O)(=O)c3ccc(C(F)(F)F)nc3)C2)cc1F [Compound 64, 2-Fluoro-4-((3-(hydroxymethyl)-1-((6-(trifluoromethyl)pyridin-3-yl)sulfonyl)azetidin-3-yl)methoxy)benzonitrile] | 5000
21 | Cc1nc(C)c(S(=O)(=O)N2CC(CO)(COc3ccc(C#N)c(F)c3)C2)s1 [Compound 65, 4-((1-((2,4-Dimethylthiazol-5-yl)sulfonyl)-3-(hydroxymethyl)azetidin-3-yl)methoxy)-2-fluorobenzonitrile] | 5000
22 | Cc1nn(C)cc1S(=O)(=O)N1CC(CO)(COc2ccc(C#N)c(F)c2)C1 [Compound 66, 4-((1-((1,3-Dimethyl-1H-pyrazol-4-yl)sulfonyl)-3-(hydroxymethyl)azetidin-3-yl)methoxy)-2-fluorobenzonitrile] | 10000
23 | N#Cc1ccc(OCC2(CO)CN(S(=O)(=O)c3ccc(F)c(Cl)c3)C2)cc1F [Compound 67, 4-((1-((3-chloro-4-fluorophenyl)sulfonyl)-3-(hydroxymethyl)azetidin-3-yl)methoxy)-2-fluorobenzonitrile] | 5000
24 | N#Cc1ccc(OCC2(CO)CN(S(=O)(=O)c3cc(Cl)cc(Cl)c3)C2)cc1F [Compound 68, 4-((1-((3,5-Dichlorophenyl)sulfonyl)-3-(hydroxymethyl)azetidin-3-yl)methoxy)-2-fluorobenzonitrile] | 5000
25 | CS(=O)(=O)c1ccc(S(=O)(=O)N2CC(CO)(COc3ccc(C#N)c(F)c3)C2)cc1 [Compound 69, 2-Fluoro-4-((3-(hydroxymethyl)-1-((4-(methylsulfonyl)phenyl)sulfonyl)azetidin-3-yl)methoxy)benzonitrile] | 5000
26 | N#Cc1ccc(OCC2(CO)CN(S(=O)(=O)c3cccc(C(F)(F)F)c3)C2)cc1F [Compound 70, 2-Fluoro-4-((3-(hydroxymethyl)-1-((3-(trifluoromethyl)phenyl)sulfonyl)azetidin-3-yl)methoxy)benzonitrile] | 5000
